Assay results taken from paper PMC5400099, “5-Hydroxyethyl-3-tetradecanoyltetramic acid represents a novel treatment for intravascular catheter infections due to Staphylococcus aureus” (Journal of Antimicrobial Chemotherapy, 2016).
In brackets after ≈: the same amount, converted by molar mass. Several values for one entry are separate records, joined by “and”; a condition that tells them apart may be missing. Identical values can stand only once. Like-named read-outs stand apart in the source and are kept apart here.

Columns and labels:
[1] = tested on: S. aureus; conditions: cited from earlier work
[2] = tested on: S. aureus; parameters: method as in PMID 24592914; conditions: cited from earlier work; for Effect on frequency and severity of arthritis: murine S. aureus arthritis model
[3] = tested on: S. aureus; parameters: method as in PMID 15623555, PMID 19807189; conditions: sub-growth inhibitory concentrations; cited from earlier work
[4] = tested on: S. aureus biofilms; parameters: method as in PMID 19807189; conditions: cited from earlier work
[5] = Haemolysis assay; type: cell-based; conditions: red blood cells; human RBC; read-out: CC50 (haemolytic activity)
Description: Human blood containing EDTA (1.6 g/L) was centrifuged at 1000 g for 5 min. Red blood cells (RBC) were washed twice with PBS, diluted 2-fold and incubated with compounds or Triton X100 (positive control) at 0.5% (v/v). A570 was determined to quantify haemolysis. IC50s were derived from the corresponding dose–response curves.

[6] = tested on: Human keratinocyte (HaCaT) cells; assay: MTT cell viability assay, HaCaT; type: cell-based; conditions: HaCaT cells
Description: (§1) Human keratinocyte (HaCaT) cells were cultured in DMEM supplemented with 10% (v/v) FBS. Primary human umbilical vein endothelial cells (HUVECs) were cultured in EGM™-2 Bulletkit (Lonza) medium. HaCaT and HUVECs were harvested using TrypLE^TM Express (Gibco). Cells were seeded in microtitre plates at 3 × 10^5 cells/mL and incubated for 24 h at 37 °C with an antimicrobial compound ([…]) or Triton X100 at 1% (v/v). After removing the medium, cells were incubated with 500 mg/L MTT (Sigma-Aldrich) for 4 h. The crystals formed were solubilized with DMSO. Absorbance was recorded at 560 nm and the CC50 was determined.

[7] = MTT cell viability assay, HaCaT; type: cell-based, Human; conditions: human, HaCaT keratinocyte cells; HaCaT, MTT, 24 h
Description: as §1

[8] = tested on: S. aureus strain USA300 LAC; assay: Membrane permeabilization: propidium iodide uptake; type: cell-based, Staphylococcus aureus; conditions: 0-100 μM, 1 h
Description: (§2) Membrane permeabilization was evaluated by quantifying (i) ATP release,[22] and (ii) the uptake of propidium iodide.[22]S. aureus strain USA300 LAC was grown overnight in CYGP medium,[9] washed with sodium phosphate buffer (100 mM, pH 7), re-suspended to OD600 0.1 and incubated at 37 °C with a range of concentrations of each compound for 1 h. Nisin (0.6 μM) was used as a positive control. Cell-free supernatants were assayed for ATP using the Cell Titre-Glo kit (Promega). Staphylococcal cells were re-suspended in 100 mM sodium phosphate buffer (pH 7) containing propidium iodide (10 mg/L), incubated in the dark at room temperature for 10 min. After washing, propidium iodide fluorescence (excitation: 575 nm; emission 630 nm) was determined.

[9] = Iron chelation; type: physicochemical; conditions: data not shown
[10] = tested on: S. aureus strain USA300 LAC; assay: Membrane permeabilization: ATP release; type: cell-based, Staphylococcus aureus; conditions: 0-100 μM, 1 h
Description: as §2

[11] = tested on: S. aureus strain USA300; assay: MIC by broth microdilution (CLSI), strain USA300; type: cell-based; conditions: Staphylococcus aureus; USA300 (MRSA), Mueller–Hinton broth
Description: (§3) Community-acquired MRSA (CA-MRSA) strain USA300, its isogenic agr mutant,[17] the hospital-acquired MRSA (HA-MRSA) strain BH1CC,[18] the HA-MSSA strain BH48[19] and the MSSA strain SH1000[20] were cultured in Mueller–Hinton broth for susceptibility testing or in RPMI-1640 (Gibco) for biofilm formation. For the rat jugular vein catheter infection model, the S. aureus strain USA300 (LAC) lux[21] was used.
(§4) 5HE-C14-TMA and C14-TOA were synthesized as described previously[9] and C14-TTA as described in the Supplementary data available at JAC Online. Stock solutions of the compounds in DMSO at 10–50 mM were further diluted into tissue culture media or sodium chloride for the in vivo experiments. A DMSO solvent control was used in all in vitro experiments. The following antibiotics were used: vancomycin (Vancocin; Flynn Pharma Ltd., Republic of Ireland), daptomycin (Cubicin; Novartis, UK), gentamicin (Hospira, UK) and tigecycline (Tygacil; Pfizer Inc.). MICs were determined by broth microdilution in Mueller–Hinton broth, as recommended by the CLSI.

[12] = tested on: S. aureus biofilms; assay: Biofilm susceptibility, resazurin-conversion assay on plasma-coated wells; type: cell-based, Staphylococcus aureus; parameters: Reduction of MRSA biofilm viability: dose or concentration left out as unconfirmed; conditions: for Reduction of biofilm viability: 512 and 1024 mg/L, 24 h treatment; for Comparative anti-biofilm activity: MRSA and MSSA biofilms, compared with the other agents evaluated
Description: Biofilms were formed as previously described to mimic in vivo conditions that promote formation of coagulase-mediated biofilms.[16] Briefly, microtitre plates or glass-bottom culture dishes (MaTek Co., USA) were coated with either 20% (v/v) or 100% (v/v) human plasma, respectively, and inoculated with S. aureus at an OD600 ∼0.2. After 1 h, non-adherent bacteria were aspirated, replaced with fresh RPMI-1640 and biofilms allowed to form over 24 h at 37 °C. Pre-formed biofilms were treated for 24 h with either 5HE-C14-TMA, C14-TOA or C14-TTA or a positive control [ethanol at 40% (v/v)]. Biofilm viability was measured by (i) resazurin-conversion assay (in microtitre wells), or (ii) live/dead imaging (glass-bottom dishes). Conversion of the non-fluorescent redox dye, resazurin into the fluorescent resorufin was performed as described previously.[16] A 44 μM resazurin (Sigma-Aldrich, UK) solution in RPMI-1640 was added to an equal biofilm volume and incubated for 1 h at 37 °C. Fluorescence (excitation 544 nm, emission 590 nm) was quantified using a Perkin Elmer 2030 Multilabel Reader Victor^TM X3. Biofilms were stained with SYTO9 Green (at 13.36 μM) and propidium iodide (at 80 μM) (Molecular Probes®) for 1 h prior to washing. Four representative images at ×40 and ×100 were obtained per experimental group, per experiment using a Zeiss LSM 510 META confocal microscope. Each experiment was repeated at least three times. Fluorescence intensity was quantified using Image J1 software (http://imagej.net/Welcome).

[13] = tested on: S. aureus strain BH48; assay: MIC by broth microdilution (CLSI), strain BH48; type: cell-based; conditions: Staphylococcus aureus; BH48 (MSSA), Mueller–Hinton broth
Description: as §3, §4

[14] = tested on: MRSA (USA300 JE2 and BH1CC) and MSSA (SH1000 and BH48) strains; assay: MIC by broth microdilution, MRSA and MSSA strains; type: cell-based, Staphylococcus aureus; conditions: MRSA and MSSA strains investigated
Description: as §3, §4

[15] = tested on: S. aureus USA300 LAC; assay: Bactericidal activity (time-kill, viable counts); type: cell-based, Staphylococcus aureus; conditions: 8 × MIC, planktonic USA300
Description: S. aureus USA300 LAC was grown overnight in LB medium, diluted 250-fold and grown to an OD600 0.5. Cells were diluted to 1 × 10^6 per mL in challenge medium (LB plus 5HE-C14-TMA, C14-TOA or C14-TTA at 8 × MIC). Samples were removed and viable counts determined at 30 min intervals for the first hour followed by hourly sampling. The CLSI defines a compound as bactericidal if it reduces the starting inoculum colony count by at least 99.9% (3-logs).

[16] = tested on: S. aureus strain BH1CC; assay: MIC by broth microdilution (CLSI), strain BH1CC; type: cell-based; conditions: Staphylococcus aureus; BH1CC (MRSA), Mueller–Hinton broth
Description: as §3, §4

[17] = tested on: S. aureus strain SH1000; assay: MIC by broth microdilution (CLSI), strain SH1000; type: cell-based; conditions: Staphylococcus aureus; SH1000 (MSSA), Mueller–Hinton broth
Description: as §3, §4

[18] = tested on: Primary human umbilical vein endothelial cells (HUVECs); assay: MTT cell viability assay, HUVEC; type: cell-based; conditions: HUVECs
Description: as §1

[19] = MTT cell viability assay, HUVEC; type: cell-based, human; conditions: human, primary HUVECs (umbilical vein endothelial cells); HUVEC, MTT, 24 h
Description: as §1

[20] = tested on: staphylococcal membrane; parameters: method as in PMID 24592914; conditions: binding to the staphylococcal membrane, single site model; cited from earlier work
[21] = tested on: agr quorum sensing system; parameters: method as in PMID 24592914; conditions: S. aureus; cited from earlier work

## CCCCCCCCCC(=O)C1C(=O)CNC1=O (centres unmarked) [C10-TMA, reference compound]
[1]
  Antibacterial activity after removal of the 5-hydroxyethyl moiety of 5HE-C10-TMA: did not reduce antibacterial activity

## CCCCCCCCCC(=O)C1C(=O)NC(CCO)C1=O (centres unmarked) [5HE-C10-TMA, 5-hydroxyethyl-3-decanoyltetramic acid]
[2]
  Toxicity in murine arthritis model: neither C14-TOA nor 5HE-C10-TMA were toxic
  Effect on frequency and severity of arthritis: inactive
[3]
  Selection for resistance on serial passage: did not select for resistance
[4]; at 200 mg/L
  Activity against S. aureus biofilms: inactive
[4]
  Efficacy against S. aureus biofilms: no efficacy

## CCCCCCCCCCCCCC(=O)C1=C(O)SCC1=O [C14-TTA, 3-tetradecanoylthiotetronic acid]
[5]
  CC50: 470 µM and 153 µg/mL
[6]
  Selectivity index (SI, CC50/MIC): 2
[7]
  CC50 at 24 h: 26 µM and 8.3 µg/mL
[8]
  Propidium iodide fluorescence (uptake relative to nisin 0.6 μM): least active
[9]
  Iron chelation: do not chelate iron
[10]
  Extracellular ATP levels (ATP release relative to nisin 0.6 μM): least active
[11]
  MIC: 12.5 µM and 4 µg/mL
[12]; resazurin
  Reduction of biofilm viability: 2.5–3 fold
[12]
  Comparative anti-biofilm activity: far less effective
[13]
  MIC: 12.5 µM and 4 µg/mL
[14]
  MIC: 4 mg/L (≈ 12.3 µM)
[14]; Staphylococcus aureus
  MIC: 2 to 4 mg/L (≈ 6.13 to 12.3 µM)
[15]
  Bactericidal activity (CLSI: at least 3-log reduction): bactericidal
[16]
  MIC: 12.5 µM and 4 µg/mL
[17]
  MIC: 12.5 µM and 4 µg/mL

## CCCCCCCCCC(=O)N[C@@H](Cc1c[nH]c2ccccc12)C(=O)N[C@H](CC(N)=O)C(=O)N[C@@H](CC(=O)O)C(=O)N[C@@H]1C(=O)NCC(=O)N[C@@H](CCCN)C(=O)N[C@@H](CC(=O)O)C(=O)N[C@H](C)C(=O)N[C@@H](CC(=O)O)C(=O)NCC(=O)N[C@H](CO)C(=O)N[C@@H]([C@H](C)CC(=O)O)C(=O)N[C@@H](CC(=O)c2ccccc2N)C(=O)O[C@@H]1C [daptomycin, reference compound]
[12]
  Comparative anti-biofilm activity: most active antimicrobial evaluated

## CCCCCCCCCC(=O)CC(=O)N[C@H]1CCOC1=O [3-oxo-C12-HSL, N-(3-oxododecanoyl)-L-homoserine lactone, reference compound]
[1]; S. aureus growth
  MIC: 100 μM and 30 mg/L

## CN[C@H](CC(C)C)C(=O)N[C@H]1C(=O)N[C@@H](CC(N)=O)C(=O)N[C@H]2C(=O)N[C@H]3C(=O)N[C@H](C(=O)N[C@H](C(=O)O)c4cc(O)cc(O)c4-c4cc3ccc4O)[C@H](O)c3ccc(c(Cl)c3)Oc3cc2cc(c3O[C@@H]2O[C@H](CO)[C@@H](O)[C@H](O)[C@H]2O[C@H]2C[C@](C)(N)[C@H](O)[C@H](C)O2)Oc2ccc(cc2Cl)[C@H]1O [vancomycin, reference compound]
[12]; MRSA biofilm, resazurin
  Reduction of MRSA biofilm viability: 3.5–4 fold

## CCCCCCCCCCCCCC(=O)C1=C(O)OCC1=O [C14-TOA, 3-tetradecanoyltetronic acid]
[5]
  CC50: > 2.05 mM and > 667 µg/mL
[2]
  Toxicity in murine arthritis model: neither C14-TOA nor 5HE-C10-TMA were toxic
  Effect on frequency and severity of arthritis: significantly reduced the frequency and severity of arthritis and joint destruction
[2]; murine S. aureus infection model
  Numbers of viable staphylococci in the kidneys: did not, however, reduce
[6]
  Selectivity index (SI, CC50/MIC): 20
[7]
  CC50 at 24 h: 257 µM and 80 µg/mL
[18]
  Selectivity index (SI, CC50/MIC): 2.3
[19]
  CC50 at 24 h: 28 µM and 9 µg/mL
[1]; towards S. aureus
  MIC: 25 µM (≈ 7.76 µg/mL)
[9]
  Iron chelation: do not chelate iron
[11]
  MIC: 12.5 µM and 4 µg/mL
[12]; resazurin
  Reduction of biofilm viability: 2.5–3 fold
[12]
  Comparative anti-biofilm activity: far less effective
[13]
  MIC: 12.5 µM and 4 µg/mL
[14]
  MIC: 4 mg/L (≈ 12.9 µM)
[14]; Staphylococcus aureus
  MIC: 2 to 4 mg/L (≈ 6.44 to 12.9 µM)
[20]
  Kd: 2000 nM
[16]
  MIC: 12.5 µM and 4 µg/mL
[21]
  IC50: 3000 nM
[17]
  MIC: 12.5 µM and 4 µg/mL
